Assay results as given in US12384777B2 (Tay Therapeutics Limited, priority 2019, dated 2025).

How the values were obtained:
BRD4 BD1 = BRD4 BD1 (Homo sapiens (Human), UniProt O60885); experiment: Bromodomain binding assay (T7 phage display, qPCR), BRD4 BD1; conditions: read-out: BRD4 BD1 Kd
Method: T7 phage strains displaying bromodomains were grown in parallel in 24-well blocks in an E. coli host derived from the BL21 strain. E. coli were grown to log-phase and infected with T7 phage from a frozen stock (multiplicity of infection=0.4) and incubated with shaking at 32° C. until lysis (90-150 min). The lysates were centrifuged (5,000×g) and filtered (0.2 μm) to remove cell debris. Streptavidin-coated magnetic beads were treated with biotinylated small molecule or acetylated peptide ligands for 30 min at RT to generate affinity resins for bromodomain assays. The ligated beads were blocked with excess biotin and washed with blocking buffer (SeaBlock (Pierce), 1% BSA, 0.05% Tween 20, 1 mM DTT) to remove unbound ligand and to reduce non-specific phage binding. Binding reactions were assembled by combining bromodomains, ligated affinity beads, and test compounds in 1× binding buffer (16% SeaBlock, 0.32×PBS, 0.02% BSA, 0.04% Tween 20, 0.004% Sodium azide, 7.9 mM DTT). Test compounds were prepared as 1000× stocks in 100% DMSO and subsequently diluted 1:25 in MEG. The compounds were then diluted directly into the assays such that the final concentrations of DMSO and MEG were 0.1% and 2.4%, respectively. All reactions were performed in polypropylene 384-well plates in a final volume of 0.02 ml. The assay plates were incubated at RT with shaking for 1 hr and the affinity beads were washed with wash buffer (1×PBS, 0.05% Tween 20). The beads were then re-suspended in elution buffer (1×PBS, 0.05% Tween 20, 2 μM non-biotinylated affinity ligand) and incubated at RT with shaking for 30 min. The bromodomain concentration in the eluates was measured by quantitative polymerase chain reaction (qPCR).
An 11-point 3-fold serial dilution of each test compound was prepared in 100% DMSO at 1000× final test concentration. All compounds were distributed by acoustic transfer (non-contact dispensing) in 100% DMSO. The compounds were then diluted directly into the assays such that the final concentration of DMSO was 0.09%. Most dissociation constants were determined using a compound top concentration=10,000 nM. If the initial dissociation constant determined was <0.169 nM (the lowest concentration tested), the measurement was repeated with a serial dilution starting at a lower top concentration.
The same bromodomain assay procedure as that outlined above was used. Example compounds were screened at 30 times their Kd, and results for primary screen binding interactions are reported as ‘% Ctrl’, where lower numbers indicate stronger hits in the matrix.

human liver hepatocytes = experiment: Intrinsic clearance in human liver hepatocytes; assay type: in vitro ADME; conditions: human cryopreserved hepatocytes, 0.5 μM test compound
Method: Vials of human cryopreserved hepatocytes, supplied by Life Technologies, were thawed according to manufacturer's instructions and cells re-suspended in Williams Medium E (WME) containing cell maintenance supplement pack (CM4000, Life Technologies). Hepatocytes were incubated in suspension (0.5 million cells/mL) in 48 well non-collagen coated cell culture plates for 10 min at 37° C., 5% CO2. Upon addition of an equal volume of supplemented WME containing 1 μM test compound, an aliquot of incubation solution was removed to acetonitrile containing internal standard (final concentration 0.5 μM test compound and a cell density of 0.25 million cells/mL). Similarly, aliquots were removed at 3, 6, 9, 15, 30, 45, 60, 90 and 120 min. 100 μL of 80:20 water:acetonitrile was added to all samples and the analysis plate was centrifuged for 10 min at RT prior to injection and analysis of samples by UPLC-MS/MS. The response (area ratio of test compound to internal standard) was plotted against time using an exponential decay model from which rate of disappearance was calculated.

Structure (SMILES)	Kd (BRD4 BD1)	Intrinsic clearance, % Liver Blood Flow (human liver hepatocytes)
Cn1cc(-c2cc(O)ccc2OC2CCCCC2)c2cc[nH]c2c1=O [Example 11, 4-(2-(cyclohexyloxy)-5-hydroxyphenyl)-6-methyl-1,6-dihydro-7H-pyrrolo[2,3-c]pyridin-7-one]	≤ 10 nM	97 % Liver Blood Flow
COC1CCC(Oc2ccc(O)cc2-c2cn(C)c(=O)c3[nH]ccc23)CC1 (stereo not drawn) [Example 12, 4-(5-hydroxy-2-((4-methoxycyclohexyl)oxy)phenyl)-6-methyl-1,6-dihydro-7H-pyrrolo[2,3-c]pyridin-7-one]	≤ 10 nM	82 % Liver Blood Flow
COc1cccc(Oc2cn(C)c(=O)cc2-c2cn(C)c(=O)c3[nH]ccc23)c1 [Example 23, 4-(5-(3-methoxyphenoxy)-1-methyl-2-oxo-1,2-dihydropyridin-4-yl)-6-methyl-1,6-dihydro-7H-pyrrolo[2,3-c]pyridin-7-one]	10 to 100 nM	38 % Liver Blood Flow
COc1ccc(Oc2cn(C)c(=O)cc2-c2cn(C)c(=O)c3[nH]ccc23)cc1 [Example 25, 4-(5-(4-methoxyphenoxy)-1-methyl-2-oxo-1,2-dihydropyridin-4-yl)-6-methyl-1,6-dihydro-7H-pyrrolo[2,3-c]pyridin-7-one]	10 to 100 nM	38 % Liver Blood Flow
COc1ccc(Oc2cn(C)c(=O)cc2-c2ccc(=O)n(C)c2)cc1 [Example 27, 5′-(4-methoxyphenoxy)-1,1′-dimethyl-[3,4′-bipyridine]-2′,6(1H,1′H)-dione]	100 to 1000 nM	<34 % Liver Blood Flow
Cn1cc(-c2cc(=O)n(C)cc2Oc2ccc(O)cc2)ccc1=O [Example 28]	100 to 1000 nM	<34 % Liver Blood Flow
Cn1cc(-c2cc(=O)n(C)cc2Oc2cccc(O)c2)ccc1=O [Example 29, 5′-(3-hydroxyphenoxy)-1,1′-dimethyl-[3,4′-bipyridine]-2′,6(1H,1′H)-dione]	10 to 100 nM	<34 % Liver Blood Flow
COc1cccc(Oc2c(-c3cn(C)c(=O)c4[nH]ccc34)ccn(C)c2=O)c1 [Example 32, 4-(3-(3-methoxyphenoxy)-1-methyl-2-oxo-1,2-dihydropyridin-4-yl)-6-methyl-1,6-dihydro-7H-pyrrolo[2,3-c]pyridin-7-one]	10 to 100 nM	<34 % Liver Blood Flow
COc1ccc(Oc2c(-c3cn(C)c(=O)c4[nH]ccc34)ccn(C)c2=O)cc1 [Example 34, 4-(3-(4-methoxyphenoxy)-1-methyl-2-oxo-1,2-dihydropyridin-4-yl)-6-methyl-1,6-dihydro-7H-pyrrolo[2,3-c]pyridin-7-one]	10 to 100 nM	<34 % Liver Blood Flow
Cn1cc(-c2ccn(C)c(=O)c2Oc2ccccc2O)ccc1=O [Example 36, 3′-(2-hydroxyphenoxy)-1,1′-dimethyl-[3,4′-bipyridine]-2′,6(1H,1′H)-dione]	100 to 1000 nM	
Cn1cc(-c2ccn(C)c(=O)c2Oc2cccc(O)c2)ccc1=O [Example 37, 3′-(3-hydroxyphenoxy)-1,1′-dimethyl-[3,4′-bipyridine]-2′,6(1H,1′H)-dione]	100 to 1000 nM	
Cn1cc(-c2ccn(C)c(=O)c2Oc2ccc(O)cc2)ccc1=O [Example 38, 3′-(4-hydroxyphenoxy)-1,1′-dimethyl-[3,4′-bipyridine]-2′,6(1H,1′H)-dione]	100 to 1000 nM	

Second part, the compound after the results:

Kd (BRD4 BD1)	Intrinsic clearance, % Liver Blood Flow (human liver hepatocytes)	Structure (SMILES)
10 to 100 nM	95 % Liver Blood Flow	CCCOc1ccc(O)cc1-c1cn(C)c(=O)c2[nH]ccc12 [Example 9, 4-(5-hydroxy-2-propoxyphenyl)-6-methyl-1,6-dihydro-7H-pyrrolo[2,3-c]pyridin-7-one]
100 to 1000 nM	34 % Liver Blood Flow	Cn1cc(Cc2ccccc2)c(-c2cn(C)c(=O)c3[nH]ccc23)cc1=O [Example 13, 4-(5-benzyl-1-methyl-2-oxo-1,2-dihydropyridin-4-yl)-6-methyl-1,6-dihydro-7H-pyrrolo[2,3-c]pyridin-7-one]
100 to 1000 nM		Cn1cc(-c2ccnn2Cc2ccccc2)c2cc[nH]c2c1=O [Example 14, 4-(1-benzyl-1H-pyrazol-5-yl)-6-methyl-1,6-dihydro-7H-pyrrolo[2,3-c]pyridin-7-one]
100 to 1000 nM		Cn1cc(-c2nccn2Cc2ccccc2)c2cc[nH]c2c1=O [Example 15, 4-(1-benzyl-1H-imidazol-2-yl)-6-methyl-1,6-dihydro-7H-pyrrolo[2,3-c]pyridin-7-one]
100 to 1000 nM		Cn1cc(-c2ncnn2Cc2ccccc2)c2cc[nH]c2c1=O [Example 16, 4-(1-benzyl-1H-1,2,4-triazol-5-yl)-6-methyl-1,6-dihydro-7H-pyrrolo[2,3-c]pyridin-7-one]
10 to 100 nM		Cn1cc(-c2scnc2Cc2ccccc2)c2cc[nH]c2c1=O [Example 17, 4-(4-benzylthiazol-5-yl)-6-methyl-1,6-dihydro-7H-pyrrolo[2,3-c]pyridin-7-one]
100 to 1000 nM		Cn1cc(-c2scnc2Oc2ccccc2O)c2cc[nH]c2c1=O [Example 19, 4-(4-(2-hydroxyphenoxy)thiazol-5-yl)-6-methyl-1,6-dihydro-7H-pyrrolo[2,3-c]pyridin-7-one]
100 to 1000 nM		Cn1cc(-c2scnc2Oc2ccccc2O)ccc1=O [Example 21, 5-(4-(2-hydroxyphenoxy)thiazol-5-yl)-1-methylpyridin-2(1H)-one]
100 to 1000 nM	<34 % Liver Blood Flow	Cn1cc(Oc2ccccc2O)c(-c2cn(C)c(=O)c3[nH]ccc23)cc1=O [Example 22, 4-(5-(2-hydroxyphenoxy)-1-methyl-2-oxo-1,2-dihydropyridin-4-yl)-6-methyl-1,6-dihydro-7H-pyrrolo[2,3-c]pyridin-7-one]
10 to 100 nM	<34 % Liver Blood Flow	Cn1cc(Oc2ccc(O)cc2)c(-c2cn(C)c(=O)c3[nH]ccc23)cc1=O [Example 26, 4-(5-(4-hydroxyphenoxy)-1-methyl-2-oxo-1,2-dihydropyridin-4-yl)-6-methyl-1,6-dihydro-7H-pyrrolo[2,3-c]pyridin-7-one]
10 to 100 nM	<34 % Liver Blood Flow	COc1ccccc1Oc1c(-c2cn(C)c(=O)c3[nH]ccc23)ccn(C)c1=O [Example 30, 4-(3-(2-methoxyphenoxy)-1-methyl-2-oxo-1,2-dihydropyridin-4-yl)-6-methyl-1,6-dihydro-7H-pyrrolo[2,3-c]pyridin-7-one]
10 to 100 nM	<34 % Liver Blood Flow	Cn1ccc(-c2cn(C)c(=O)c3[nH]ccc23)c(Oc2ccccc2O)c1=O [Example 31, 4-(3-(2-hydroxyphenoxy)-1-methyl-2-oxo-1,2-dihydropyridin-4-yl)-6-methyl-1,6-dihydro-7H-pyrrolo[2,3-c]pyridin-7-one]
≤ 10 nM	<34 % Liver Blood Flow	Cn1ccc(-c2cn(C)c(=O)c3[nH]ccc23)c(Oc2cccc(O)c2)c1=O [Example 33, 4-(3-(3-hydroxyphenoxy)-1-methyl-2-oxo-1,2-dihydropyridin-4-yl)-6-methyl-1,6-dihydro-7H-pyrrolo[2,3-c]pyridin-7-one]
10 to 100 nM		Cn1ccc(-c2cn(C)c(=O)c3[nH]ccc23)c(Oc2ccc(O)cc2)c1=O [Example 35, 4-(3-(4-hydroxyphenoxy)-1-methyl-2-oxo-1,2-dihydropyridin-4-yl)-6-methyl-1,6-dihydro-7H-pyrrolo[2,3-c]pyridin-7-one]
